Inconclusive results are not listed.

The nature of this experiment: LMP1 TES1 pathway selectivity over dsRED control – imaging, HEK293T, dual-color eGFP/dsRED, cherry-picks, selectivity assay for LMP1 NF-kB inhibitor project, dose response (AID 588398). The note with it: HEK293T LMP1 TES1-eGFP reporter, 48 h, dsRED channel counter-screen.

The term AC50 denotes the concentration at which the activity in the assay is half-maximal. As for `COc1ccc(N2Cc3ccccc3C2=O)cc1`, the AC50 was more than 19.5 µM.
With `CC(=NNc1nc2ccccc2s1)c1ncccn1` the figure was 7.33 µM.
